These results are taken from ChEMBL document CHEMBL4339212, “Novel 7-formyl-naphthyridyl-ureas derivatives as potential selective FGFR4 inhibitors: Design, synthesis, and biological activity studies” (Bioorg Med Chem, 2019).

Series [1] has as its target Platelet-derived growth factor receptor beta (Homo sapiens, UniProt P09619). The series can be described thus: Inhibition of PDGFRbeta (unknown origin).
The target of series [2] is Epidermal growth factor receptor (Homo sapiens, UniProt P00533). As to the kind of experiment: Inhibition of EGFR (unknown origin).
Series [3] addresses Muscle, skeletal receptor tyrosine-protein kinase (Homo sapiens, UniProt O15146). As to the kind of experiment: Inhibition of MUSK (unknown origin).
The target in series [4] is Tyrosine-protein kinase JAK2 (Homo sapiens, UniProt O60674). As to the kind of experiment: Inhibition of JAK2 (unknown origin).
Tyrosine-protein kinase JAK2, sequence (O60674 whole entry): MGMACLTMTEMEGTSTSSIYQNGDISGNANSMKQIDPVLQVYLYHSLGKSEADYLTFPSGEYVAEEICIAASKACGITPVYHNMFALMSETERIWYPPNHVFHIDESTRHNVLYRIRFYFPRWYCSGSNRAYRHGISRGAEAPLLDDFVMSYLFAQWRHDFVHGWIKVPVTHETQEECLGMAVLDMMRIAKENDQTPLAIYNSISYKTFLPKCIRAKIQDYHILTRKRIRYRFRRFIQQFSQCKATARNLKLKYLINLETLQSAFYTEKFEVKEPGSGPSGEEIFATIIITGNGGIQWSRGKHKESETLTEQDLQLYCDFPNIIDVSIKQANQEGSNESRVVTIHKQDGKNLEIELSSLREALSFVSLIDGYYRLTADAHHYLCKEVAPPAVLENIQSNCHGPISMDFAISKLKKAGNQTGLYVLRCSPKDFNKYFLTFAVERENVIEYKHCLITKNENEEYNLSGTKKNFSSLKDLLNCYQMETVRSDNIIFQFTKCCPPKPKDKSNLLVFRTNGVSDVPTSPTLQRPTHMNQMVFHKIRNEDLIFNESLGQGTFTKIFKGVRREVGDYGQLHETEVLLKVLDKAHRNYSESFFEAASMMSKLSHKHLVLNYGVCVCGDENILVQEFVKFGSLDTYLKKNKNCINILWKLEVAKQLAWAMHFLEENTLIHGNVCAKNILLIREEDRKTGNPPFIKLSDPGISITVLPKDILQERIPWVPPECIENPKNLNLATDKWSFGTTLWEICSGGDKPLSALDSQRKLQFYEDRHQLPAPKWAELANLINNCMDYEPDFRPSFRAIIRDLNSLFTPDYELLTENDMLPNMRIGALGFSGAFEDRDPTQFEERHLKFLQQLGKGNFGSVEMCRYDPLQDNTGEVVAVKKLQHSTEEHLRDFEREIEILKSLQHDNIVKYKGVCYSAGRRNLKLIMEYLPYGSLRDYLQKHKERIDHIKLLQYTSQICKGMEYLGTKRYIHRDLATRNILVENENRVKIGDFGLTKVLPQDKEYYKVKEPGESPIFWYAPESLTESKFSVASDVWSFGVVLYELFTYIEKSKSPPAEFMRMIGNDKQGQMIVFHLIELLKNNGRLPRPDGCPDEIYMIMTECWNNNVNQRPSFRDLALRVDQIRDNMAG
In series [5] the target is Tyrosine-protein kinase JAK3 (Homo sapiens, UniProt P52333). The series can be described thus: Inhibition of JAK3 (unknown origin).
A further series has as its target Ephrin type-B receptor 1 (Homo sapiens, UniProt P54762). The series can be described thus: Inhibition of EphB1 (unknown origin).
Series [6] addresses Tyrosine-protein kinase JAK1 (Homo sapiens, UniProt P23458). The series can be described thus: Inhibition of JAK1 (unknown origin).
The target of series [7] is MAP kinase-activated protein kinase 3 (Homo sapiens, UniProt Q16644). As to the kind of experiment: Inhibition of MAPKAPK3 (unknown origin).
MAP kinase-activated protein kinase 3, sequence (Q16644 whole entry): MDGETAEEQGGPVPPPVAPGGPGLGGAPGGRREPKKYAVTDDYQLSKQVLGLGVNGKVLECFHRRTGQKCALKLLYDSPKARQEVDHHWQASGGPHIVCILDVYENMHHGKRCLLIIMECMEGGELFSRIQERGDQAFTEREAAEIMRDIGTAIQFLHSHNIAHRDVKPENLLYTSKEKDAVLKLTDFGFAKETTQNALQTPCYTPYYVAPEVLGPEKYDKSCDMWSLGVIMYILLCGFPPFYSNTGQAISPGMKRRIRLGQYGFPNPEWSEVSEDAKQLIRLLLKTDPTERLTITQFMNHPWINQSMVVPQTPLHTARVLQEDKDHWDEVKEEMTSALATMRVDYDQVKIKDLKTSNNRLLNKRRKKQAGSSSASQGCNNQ
The target of series [8] is Insulin-like growth factor 1 receptor (Homo sapiens, UniProt P08069). The series can be described thus: Inhibition of IGF1R (unknown origin).
Insulin-like growth factor 1 receptor, sequence (P08069 31-736 limits assumed): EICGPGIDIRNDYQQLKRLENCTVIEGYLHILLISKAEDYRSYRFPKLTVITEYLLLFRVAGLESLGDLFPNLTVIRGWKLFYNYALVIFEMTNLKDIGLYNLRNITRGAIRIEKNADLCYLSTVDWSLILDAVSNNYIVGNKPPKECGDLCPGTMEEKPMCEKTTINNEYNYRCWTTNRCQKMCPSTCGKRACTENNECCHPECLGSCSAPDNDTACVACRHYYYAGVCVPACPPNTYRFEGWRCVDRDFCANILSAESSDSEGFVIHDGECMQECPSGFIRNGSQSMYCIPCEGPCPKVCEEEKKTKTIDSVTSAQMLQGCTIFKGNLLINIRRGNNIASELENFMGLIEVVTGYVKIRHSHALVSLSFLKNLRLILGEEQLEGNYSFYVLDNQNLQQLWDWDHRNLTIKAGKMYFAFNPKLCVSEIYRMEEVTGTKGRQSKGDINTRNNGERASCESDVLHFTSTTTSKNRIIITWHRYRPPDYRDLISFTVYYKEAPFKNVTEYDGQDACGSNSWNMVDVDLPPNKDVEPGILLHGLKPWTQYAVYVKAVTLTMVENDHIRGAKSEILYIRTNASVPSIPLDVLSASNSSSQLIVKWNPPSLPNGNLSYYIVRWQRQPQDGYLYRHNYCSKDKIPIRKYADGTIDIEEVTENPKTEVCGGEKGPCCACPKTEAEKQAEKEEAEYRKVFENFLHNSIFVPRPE
Insulin-like growth factor 1 receptor, sequence (P08069 741-1367 limits assumed): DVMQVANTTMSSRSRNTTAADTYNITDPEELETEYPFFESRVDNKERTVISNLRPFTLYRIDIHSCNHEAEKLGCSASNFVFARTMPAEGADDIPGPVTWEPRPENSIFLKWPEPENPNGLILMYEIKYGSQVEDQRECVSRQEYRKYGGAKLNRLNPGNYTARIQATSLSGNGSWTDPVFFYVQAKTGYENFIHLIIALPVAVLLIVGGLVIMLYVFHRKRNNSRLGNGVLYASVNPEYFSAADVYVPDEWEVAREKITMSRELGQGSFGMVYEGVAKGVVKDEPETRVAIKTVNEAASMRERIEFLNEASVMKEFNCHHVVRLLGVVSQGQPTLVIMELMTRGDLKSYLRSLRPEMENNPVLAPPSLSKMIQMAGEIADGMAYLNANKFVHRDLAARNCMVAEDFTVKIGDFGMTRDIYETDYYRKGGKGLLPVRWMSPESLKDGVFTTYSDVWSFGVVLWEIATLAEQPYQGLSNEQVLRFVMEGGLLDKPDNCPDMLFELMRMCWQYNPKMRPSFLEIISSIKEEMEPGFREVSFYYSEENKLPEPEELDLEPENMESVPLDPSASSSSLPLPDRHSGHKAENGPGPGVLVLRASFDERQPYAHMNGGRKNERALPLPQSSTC
The target of series [9] is Fibroblast growth factor receptor 1 (Homo sapiens, UniProt P11362). The series can be described thus: Inhibition of FGFR1 (unknown origin).
Series [10] addresses Fibroblast growth factor receptor 2 (Homo sapiens, UniProt P21802). As to the kind of experiment: Inhibition of FGFR2 (unknown origin).
Series [11] can be described thus: Toxicity in male BALB/c mouse assessed as effect on body weight at 50 to 450 mg/kg/day, ig dosed once daily for 4 weeks followed by rehabilitation for another 28 days. It counts as organism-based. Conditions: in vivo, po, 672 h.
Series [12] is described as follows: Toxicity in female BALB/c mouse assessed as effect on clinical pathology parameters at 200 to 2000 mg/kg, ig administered as single dose measured after 14 days. It counts as organism-based. Conditions: in vivo, po, 336 h.
Series [13] in a line: Toxicity in male BALB/c mouse at 200 to 2000 mg/kg, ig administered as single dose measured after 14 days. It counts as organism-based. Conditions: in vivo, po.

Platelet-derived growth factor receptor beta, sequence (P09619 whole entry): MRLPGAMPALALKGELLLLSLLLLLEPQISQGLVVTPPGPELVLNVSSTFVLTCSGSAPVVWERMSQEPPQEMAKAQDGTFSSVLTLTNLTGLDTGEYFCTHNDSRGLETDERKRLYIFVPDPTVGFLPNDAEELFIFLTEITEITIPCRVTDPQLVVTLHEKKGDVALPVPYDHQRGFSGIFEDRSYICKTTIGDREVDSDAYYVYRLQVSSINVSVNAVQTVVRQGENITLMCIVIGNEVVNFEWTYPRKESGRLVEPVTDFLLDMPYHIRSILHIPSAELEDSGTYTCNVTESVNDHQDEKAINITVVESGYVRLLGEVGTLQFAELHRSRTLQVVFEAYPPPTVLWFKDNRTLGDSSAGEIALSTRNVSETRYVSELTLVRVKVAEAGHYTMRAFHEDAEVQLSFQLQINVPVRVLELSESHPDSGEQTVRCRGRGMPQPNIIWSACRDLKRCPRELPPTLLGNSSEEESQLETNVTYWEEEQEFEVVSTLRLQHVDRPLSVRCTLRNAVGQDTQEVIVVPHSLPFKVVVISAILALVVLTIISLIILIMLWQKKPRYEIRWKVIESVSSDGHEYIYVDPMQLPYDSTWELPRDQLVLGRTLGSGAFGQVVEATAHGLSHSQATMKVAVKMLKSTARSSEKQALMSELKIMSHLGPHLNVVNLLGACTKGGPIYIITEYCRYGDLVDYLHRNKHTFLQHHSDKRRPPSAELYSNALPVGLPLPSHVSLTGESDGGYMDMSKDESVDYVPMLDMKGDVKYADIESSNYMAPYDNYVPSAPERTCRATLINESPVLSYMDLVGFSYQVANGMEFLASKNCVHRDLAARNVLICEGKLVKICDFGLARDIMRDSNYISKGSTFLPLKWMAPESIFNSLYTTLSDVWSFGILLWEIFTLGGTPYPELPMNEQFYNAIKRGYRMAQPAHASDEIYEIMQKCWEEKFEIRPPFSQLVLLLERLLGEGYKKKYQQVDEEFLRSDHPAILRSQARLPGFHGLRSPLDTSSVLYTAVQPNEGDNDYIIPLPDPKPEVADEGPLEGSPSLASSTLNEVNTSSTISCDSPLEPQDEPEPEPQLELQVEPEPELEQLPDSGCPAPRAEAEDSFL
Muscle, skeletal receptor tyrosine-protein kinase, sequence (O15146 whole entry): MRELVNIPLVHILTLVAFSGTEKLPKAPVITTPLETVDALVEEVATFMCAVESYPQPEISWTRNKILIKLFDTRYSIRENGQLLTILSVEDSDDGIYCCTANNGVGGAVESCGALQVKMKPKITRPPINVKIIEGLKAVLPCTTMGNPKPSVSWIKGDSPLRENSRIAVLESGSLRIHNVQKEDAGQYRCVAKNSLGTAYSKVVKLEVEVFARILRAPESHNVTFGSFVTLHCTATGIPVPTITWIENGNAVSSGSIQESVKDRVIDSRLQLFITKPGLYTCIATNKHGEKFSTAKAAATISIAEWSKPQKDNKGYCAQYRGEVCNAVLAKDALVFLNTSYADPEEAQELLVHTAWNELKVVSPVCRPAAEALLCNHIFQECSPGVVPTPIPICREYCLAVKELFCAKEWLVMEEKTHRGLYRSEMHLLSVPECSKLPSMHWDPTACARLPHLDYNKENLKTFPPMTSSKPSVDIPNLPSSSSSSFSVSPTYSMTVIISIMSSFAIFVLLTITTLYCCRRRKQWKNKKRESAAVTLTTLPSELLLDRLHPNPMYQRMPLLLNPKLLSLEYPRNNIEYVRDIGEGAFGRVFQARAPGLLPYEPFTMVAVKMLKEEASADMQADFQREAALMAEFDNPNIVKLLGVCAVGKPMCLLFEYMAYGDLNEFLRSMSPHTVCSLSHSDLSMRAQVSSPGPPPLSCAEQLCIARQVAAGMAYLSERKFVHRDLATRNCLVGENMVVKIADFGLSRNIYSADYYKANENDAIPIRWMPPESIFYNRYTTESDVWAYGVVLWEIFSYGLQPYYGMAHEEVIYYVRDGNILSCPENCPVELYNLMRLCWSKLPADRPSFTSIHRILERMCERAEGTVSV

Usually IC50 stands for the concentration at which inhibition is half-maximal. Read a low IC50 as greater potency in that assay. One may read the NOAEL as the highest tested level that showed no adverse finding. Take `COC[C@@H](C)Nc1cc(NC(=O)N2CCCc3cc(CN4CCCCOC4=O)c(C=O)nc32)ncc1C#N`: the IC50 (in series [1]; in [2]; in series [3]; in series [4]; in series [5]; against Ephrin type-B receptor 1) was above 10 µM throughout. The IC50 in [6], in [7], in [8], in series [9] and in [10] was above 10 µM throughout. The Activity entry in [11] and in series [12] was “Non-Toxic” throughout. In [13], this compound registered an NOAEL at 336 h of 2000 mg/kg/day.
